Reference: patent US20080234345A1, “METHOD FOR REDUCING OR ALLEVIATING INFLAMMATION IN THE DIGESTIVE TRACT” (Gene Logic Inc., priority 2006, published 2008)

Tests used:
[1] = tested on: DSS-induced NF-κB signaling; test: Subsequent DSS study in NF-κB::Luc mice, oral gavage; assay type: in vivo; conditions: 300 mg/kg/day, twice daily by oral gavage; 2.5% DSS
Description: In a subsequent study in NF-κB::Luc mice, 2.5% DSS treatment tended to increase NF-κB signaling, as measured by luciferase expression, in distal colon and mesenteric lymph tissues, although these increases were generally not statistically significant. […] Reasons for lack of effect of GL1001 in this study are not fully understood at present.

[2] = tested on: NF-κB dependent transcription; test: TNFα-induced activation of NF-κB in recombinant HeLa reporter cells (luciferase); assay type: cell-based
Description: To test the ACE2 inhibitor GL1001 for anti-inflammatory activity relevant to IBD, effects of the compound on activation of NF-κB dependent transcription by TNFα were examined in recombinant reporter cells containing a construct with a luciferase reporter gene under control of NF-κB dependent regulatory sequences, thereby allowing detection of NF-κB dependent transcription by measuring reporter enzyme using a conventional luciferase activity assay based on detection of generated light.
In particular, HeLa cells (American Type Culture Collection) were grown in Dulbecco's modified Eagles medium (DMEM) supplemented with 10% fetal calf serum and transiently transfected with an NF-κB-luc construct (Stratagene, Inc.), as follows (with all incubation steps at 37 C unless otherwise indicated). Cells were seeded and grown to about 70% confluency in a 10 cm cell culture dish. Plasmid DNA (10 μg) was added to 1 ml serum free DMEM media in a tube. Fugene 6 transfection reagent (30 μl) (Roche) was then pipetted slowly into the tube and the contents were gently mixed by inversion. The mixture was incubated at room temperature for 15 minutes and then added dropwise to cells in one 10 cm dish. Following incubation for 24 hours, cells were detached from the plate with Trypsin-EDTA (Gibco-BRL), transferred to wells in a clear-bottom white 96-well test plate (Fisher) with 100 μl per well serum free DMEM, at a density of 3×10^4 cells per well, and allowed to attach overnight. Compound (GL1001) was then added to wells at a concentration of approximately 0, 0.008, 0.04, 0.2, 1.0 or 5.0 μM, followed immediately by addition of TNFα (R&D) to a final concentration of 20 ng/ml. After incubation for 6 hours, 100 μl of Bright-Glo Luciferase buffer (Promega, Cat# E2610) was added, and the plate was incubated at room temperature, with mild shaking, for 10 min. Bioluminescence was then measured using a Veritas luminometer (Turner BioSystems). Each plotted data point represents the average bioluminescence of 4 independent wells.

[3] = tested on: dextran sulfate sodium (DSS) induced colitis in mice; test: DSS induced colitis in NF-κB::Luc mice (Example 5); assay type: in vivo; conditions: 100 mg/kg s.c. per day
Description: GL1001 was further tested for in vivo anti-inflammatory activity by examining its effects on dextran sulfate sodium (DSS) induced colitis in mice. […] See, e.g., Hollenbach et al. (2004) FASEB J. 18(13):1550-1552. See also Bryne et al. (2006), Current Opinion in Drug Discovery & Development 8(2):207-217 and sources cited therein. These pathologies include predominant left-sided colonic inflammation, prominent regeneration of the colonic mucosa cells with dysplasia leading to colon cancer, shortening of the large intestine, focal crypt damage, and frequent lymphoid hyperplasia in both biological systems. Further, according to Hollenbach et al (2004), supra, DSS-induced colitis in mice has a high value in assessing the efficacy of therapeutic agents commonly used in the treatment of colitis, since all therapeutically beneficial substances in human IBD were also shown to reduce the disease activity in this mouse model.
The study was designed with three groups: control (5 mice), 2.5% DSS alone (10 mice), and 2.5% DSS with GL1001 treatment (100 mg/kg subcutaneously per day) (10 mice). NF-κB::Luc mice were used to measure NF-κB activation as an indicator of inflammatory activity, as described above. In particular, organ specific luciferase activity was measured, in addition to body weight, fluid intake, occult fecal blood, organ weights and neutrophil infiltration (MPO assay). NF-κB::luc BL/6 albino background mice of 6-8 weeks of age were provided with 2.5% dextran sodium sulfate (DSS, MW 40,000; MP Biomedicals) in the drinking water. Mice were weighed, imaged and dosed with GL1001 daily. Fecal samples were collected from the bottom of the cages for each treatment group and tested for fecal consistency and occult blood using Hemocult Tape as directed by the manufacturer (Fisher Scientific) and fluid consumption was measured. At the conclusion of the study, the GI tract was removed, the various sections were cleaned and weighed, tissue samples were prepared for bioluminescent assays and myeloperoxidase (Myeloperoxidase assay kit, Cytostore) to look at neutrophil infiltration.
The mice were weighed and imaged at the time of daily GL1001 or vehicle control administration. Biophotonic images of the mice were acquired each day, as described above, with quantitative abdominal imaging results shown in FIG. 7. […] Water consumption was monitored for all of the animals and similar consumption rates indicate that DSS treated mice were all receiving similar amounts of DSS (FIG. 8).
Inflammatory bowel disease progression was monitored using an inflammatory bowel disease activity index which consists of the sum of percent weight loss, stool consistency and occult fecal blood divided by 3.

[4] = tested on: DSS-induced colitis in Balb/c mice; test: DSS-induced colitis in Balb/c mice (Example 7); assay type: in vivo; conditions: s.c. b.i.d., GL1001 300 mg/kg
Method: A study was designed with six groups of Balb/c mice: naïve control, DSS followed by vehicle, DSS followed by GL1001 30 mg/kg/day, DSS followed by GL1001 100 mg/kg/day, DSS followed by GL1001 300 mg/kg/day, and DSS followed by sulfasalazine 150 mg/kg/day. Administration of DSS was via drinking water, from day 1 to day 6 of the study. […] Administration of vehicle, GL1001 and sulfasalazine was subcutaneous, twice daily, from day 6 until termination of the study (day 16).
Body weight of each animal was measured at days 1, 3 and 5 (pre-initiation of GL1001 or sulfasalazine treatment) and at days 7, 9, 11 and 13 (post-initiation of GL1001 or sulfasalazine treatment). On these same days, disease activity measurements were recorded, including: • (a) rectal prolapse (0=no prolapse, 1=partial prolapse, 2=moderate prolapse, 3=full prolapse); • (b) stool consistency (0=solid pellet, 1=semi-solid, 2=soft stool, 3=diarrhea); and • (c) fecal occult blood (0=no blood present, 1=occult blood, 2=gross blood).
At termination of the study, colon length was determined and histological analysis was conducted as in Example 6.

CC(C)C[C@H](N[C@@H](Cc1cncn1Cc1cc(Cl)cc(Cl)c1)C(=O)O)C(=O)O [GL1001, (S,S)-2-[1-carboxy-2-[3-(3,5-dichlorobenzyl)-3H-imidazol-4-yl]-ethylamino]-4-methylpentanoic acid]
DSS-induced NF-κB signaling (luciferase expression) [1]: did not lower
inhibition of TNFα induced activation of NF-κB dependent transcription ([2]; 8 nM GL1001, TNFα 20 ng/ml, 6 hours): over 80%
maximal inhibition of TNFα induced activation of NF-κB dependent transcription ([2]; 0.2 μM GL1001, TNFα 20 ng/ml, 6 hours): over 95%
TNFα induced activation of NF-κB dependent transcription ([2]; all tested concentrations (0.008-5.0 μM)): significantly inhibited
inflammatory bowel disease activity index ([3]; between days 3 and 8): slight delay
reduction in body weight ([3]; between days 4 and 9, vs DSS only): significantly delayed
NF-κB-driven luciferase expression, abdominal imaging, DSS only vs DSS+GL1001 ([3]; from study day 6): non-statistically significant divergence
DSS induced organ weight increases (organ weight/body weight ratio) ([3]; cecum and large intestine (colon)): completely prevented
fecal occult blood ([4]; day 7, sulfasalazine 150 mg/kg): reduces
stool consistency ([4]; day 7, sulfasalazine 150 mg/kg): reduces
percentage weight loss ([4]; day 9, sulfasalazine 150 mg/kg): reduces
rectal prolapse ([4]; day 9, sulfasalazine 150 mg/kg): reduces
distal colon erosion score [4]: reduces
distal colon crypt score ([4]; sulfasalazine 150 mg/kg): reduces
distal colon inflammation score ([4]; sulfasalazine 150 mg/kg): reduces
distal colon total histopathology score ([4]; sulfasalazine 150 mg/kg): reduces
reduction in colon length ([4]; sulfasalazine 150 mg/kg): inhibits reduction
